Reference: US8685974B2 (Bayer CropScience AG, priority 2009, dated 2014)
Like-named read-outs stand apart in the source and are kept apart here. Marks after values point to notes of the source that are not given here.

Tests used:
Leptosphaeria nodorum = Leptosphaeria nodorum test (wheat) / protective; type: in vivo; conditions: 500 ppm active compound, protective spray, evaluated 7-9 days after inoculation
Protocol: Leptosphaeria nodorum Test (Wheat)/Protective
Solvent: 49 parts by weight of N,N-dimethylformamide
Emulsifier: 1 part by weight of alkylaryl polyglycol ether
To produce a suitable preparation of active compound, 1 part by weight of active compound is mixed with the stated amounts of solvent and emulsifier, and the concentrate is diluted with water to the desired concentration.
To test for protective activity, young wheat plants are sprayed with the preparation of active compound at the stated application rate. […] The plants are then placed in a greenhouse at 90% rel. atmospheric humidity and a temperature of 22° C.
Evaluation is carried out 7-9 days after the inoculation. 0% means an efficacy which corresponds to that of the control, whereas an efficacy of 100% means that no infection is observed.

[1] = logP by HPLC on reversed phase columns, method [a] (pH 2.3); type: physicochemical; conditions: for log p: method [a]: pH 2.3, 0.1% phosphoric acid and acetonitrile as eluent, main isomer
Fusarium graminearum = type: cell-based; conditions: 50 μM; for % Inhibition of DON/AcDON at 50 μM: 7 days at 28° C.
Alternaria solani = test: Alternaria test (tomato) / protective; type: in vivo; conditions: 500 ppm active compound, protective spray, evaluated 7 days after inoculation
How it was run: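 Efficacy scored 7 days after inoculation, where 100% means no infection and 0% matches the untreated control. Test plants were young tomatoes given a protective spray at the stated rate, compound dissolved in DMF plus emulsifier and diluted with water. Incubation at 20° C, 96% relative humidity.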

Fusarium proliferatum = test: Production of fumonisin FB1 by Fusarium proliferatum (microtiter plate, HPLC-MS/MS and OD620); type: cell-based; conditions: for % inhibition FB1 production at 50 μM: 5 days at 20° C., HPLC-MS/MS; for % inhibition fungal growth at 50 μM: Fusarium proliferatum, OD620 at start and after 5 days
Pyrenophora teres = test: In vivo test on Pyrenophora teres (barley net blotch); conditions: dose of 500 ppm; barley plants; grading 12 days after contamination
How it was run: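 Scoring is done 12 days after spore spraying (12,000 spores/ml, from 12-day-old culture), relative to water-treated controls. Inoculation follows by 24 h a preventive spray of the aqueous-diluted formulation onto 1-leaf Plaisant barley raised at 12° C.; infection holds 24 h at about 20° C./100% RH, then 12 days at 80% RH.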

| SMILES | efficacy (Leptosphaeria nodorum) | log p [1] | % Inhibition of fungal growth at 50 μM (Fusarium graminearum) | % Inhibition of DON/AcDON at 50 μM (Fusarium graminearum) | efficacy (Alternaria solani) | log p (pH 2.7) | also measured |
| --- | --- | --- | --- | --- | --- | --- | --- |
| c1cc(-c2c[nH]nc2-c2cc3ccsc3s2)ccn1 [Example 409] | 78% | 1.13^[a] | – | – | – | – | – |
| CC(C)n1nc(-c2ccc(Cl)s2)c(-c2ccncc2)c1C1CC1 [Example 418] | – | 2.44^[a] | – | – | – | – | – |
| CC(C)n1nc(C2CC2)c(-c2ccncc2)c1-c1ccc(Cl)s1 [Example 417] | 80% | 2.44^[a] | – | – | – | – | – |
| CC(C)Cn1nc(C2CC2)c(-c2ccncc2)c1-c1ccc(Cl)s1 [Example 413] | 70% | 2.61^[a] | – | – | – | – | – |
| CC(C)Cn1cc(-c2cc(O)ncn2)c(-c2ccc(Cl)s2)n1 [Example 422] | – | 2.84^[a] | – | – | – | – | – |
| CCC(C)n1cc(-c2ccncc2)c(-c2ccc(F)s2)n1 (centres unmarked) [Example 106] | – | – | 98% | 99% | 100% | 1.78^[b] | % inhibition FB1 production at 50 μM (Fusarium proliferatum): 98%; % inhibition fungal growth at 50 μM (Fusarium proliferatum): 39% |
| CC(=O)Nc1nccc(-c2cn(CC(C)C)nc2-c2ccc(Cl)s2)n1 [Example 410] | 94% | 3.04^[a] | 0% | 83% | – | – | – |
| CCC(C)n1cc(-c2ccncc2)c(-c2ccc(C(F)(F)F)s2)n1 (centres unmarked) [Example 400] | – | 2.58^[a] | 0% | 99% | – | – | – |
| CC(C)n1cc(-c2ccncc2)c(-c2ccc(C(F)(F)F)s2)n1 [Example 401] | – | 2.2^[a] | 0% | 99% | 78% | – | – |
| CCC(C)n1cc(-c2ccnc(NC(C)=O)c2)c(-c2ccc(Cl)s2)n1 (centres unmarked) [Example 110] | 95% | – | 99% | 100% | 95% | 2.94^[b] | protection (Pyrenophora teres): 100%; % inhibition FB1 production at 50 μM (Fusarium proliferatum): 99%; % inhibition fungal growth at 50 μM (Fusarium proliferatum): 86% |
| CC#Cc1c(-c2ccncc2)c(-c2ccc(Cl)s2)nn1Cc1ccc(OC)cc1 [Example 420] | – | 3.02^[a] | – | – | – | – | logP value of the minor isomer ([1]; minor isomer, in parentheses in the Isomer ratio column, method [a], pH 2.3): (2.53); % inhibition FB1 production at 50 μM (Fusarium proliferatum): 90%; % inhibition fungal growth at 50 μM (Fusarium proliferatum): 21% |
| CC#Cc1c(-c2ccncc2)c(-c2ccc(Cl)s2)nn1C(C)C [Example 412] | 70% | 2.78^[a] | 98% | 93% | 90% | – | – |
| CC(=O)n1cc(-c2ccncn2)c(-c2ccc(Cl)s2)n1 [Example 4] | – | – | – | – | – | 2.92^[b] | % inhibition FB1 production at 50 μM (Fusarium proliferatum): 89%; % inhibition fungal growth at 50 μM (Fusarium proliferatum): 22% |
| CCC(C)n1nc(-c2ccc(Cl)s2)c(-c2ccncc2)c1C1CC1 (centres unmarked) [Example 416] | 70% | 2.75^[a] | 8% | 91% | – | – | – |
| CCC(C)n1cc(-c2ccnc(C#N)c2)c(-c2ccc(Cl)s2)n1 (centres unmarked) [Example 97] | – | – | – | – | 90% | 4.41^[b] | % inhibition FB1 production at 50 μM (Fusarium proliferatum): 99%; % inhibition fungal growth at 50 μM (Fusarium proliferatum): 17% |
| CCC(C)n1cc(-c2ccncc2)c(-c2cc(Cl)cs2)n1 (centres unmarked) [Example 167, 4-[1-sec-Butyl-3-(4-chloro-2-thienyl)-1H-pyrazol-4-yl]pyridine] | 90% | – | – | – | 90% | – | protection (Pyrenophora teres): 95%; logP value of the minor isomer (pH 2.7): (1.76); chromatographic logP (physchem; pH 2.7): 1.86 |
| COc1ccc(Cn2nc(-c3ccc(Cl)s3)c(-c3ccncc3)c2C2CC2)cc1 [Example 101] | – | – | – | – | – | 2.69^[b] | % inhibition FB1 production at 50 μM (Fusarium proliferatum): 87%; % inhibition fungal growth at 50 μM (Fusarium proliferatum): 0% |
| CC(C)Cn1cc(-c2ccnc(O)n2)c(-c2ccc(Cl)s2)n1 [Example 398] | – | 2.62^[a] | – | – | – | – | – |
| CC(C)n1cc(-c2ccncc2)c(-c2ccc(F)s2)n1 [Example 108] | – | – | 99% | 100% | 100% | 1.53^[b] | % inhibition FB1 production at 50 μM (Fusarium proliferatum): 100%; % inhibition fungal growth at 50 μM (Fusarium proliferatum): 25% |

| SMILES | efficacy (Leptosphaeria nodorum) | log p [1] | % Inhibition of fungal growth at 50 μM (Fusarium graminearum) | % Inhibition of DON/AcDON at 50 μM (Fusarium graminearum) | efficacy (Alternaria solani) | log p (pH 2.7) | also measured |
| --- | --- | --- | --- | --- | --- | --- | --- |
| CC(C)Cn1cc(-c2ccnc3ccccc23)c(-c2ccc(Cl)s2)n1 [Example 421] | – | 3.69^[a] | – | – | 89% | – | – |
| CC(C)Cn1cc(-c2ccnc(NC(=O)C(C)C)n2)c(-c2ccc(Cl)s2)n1 [Example 98] | – | – | – | – | – | – | log p (pH 2.3): 3.67^[a]; % inhibition FB1 production at 50 μM (Fusarium proliferatum): 97%; % inhibition fungal growth at 50 μM (Fusarium proliferatum): 4% |
| CCC(C)n1nc(C2CC2)c(-c2ccncc2)c1-c1ccc(Cl)s1 (centres unmarked) [Example 415] | – | 2.73^[a] | – | – | – | – | – |
| CC(C)Cn1nc(-c2ccc(Cl)s2)c(-c2ccncc2)c1C1CC1 [Example 414] | – | 2.7^[a] | 11% | 84% | – | – | – |
| CC(C)Cn1cc(-c2ccnc(NC(C)C)n2)c(-c2ccc(Cl)s2)n1 [Example 411] | – | 4.34^[a] | 98% | 99% | – | – | – |
| Cc1cn(-c2cc(-c3cn(CC(C)C)nc3-c3ccc(Cl)s3)ccn2)cn1 [Example 399] | – | 2.56^[a] | 0% | 90% | 78% | – | – |
| CC#Cc1[nH]nc(-c2ccc(Cl)s2)c1-c1ccncc1 [Example 419] | – | 1.44^[a] | – | – | – | – | – |
| CC(C)Cn1cc(-c2cc(N)ncn2)c(-c2ccc(Cl)s2)n1 [Example 423] | 80% | 1.97^[a] | 91% | 99% | 94% | – | protection (Pyrenophora teres): 75% |
| CCC(=O)Nc1cc(-c2cn(C(C)CC)nc2-c2cc(Cl)cs2)ccn1 (centres unmarked) [Example 164, N-{4-[1-sec-Butyl-3-(4-chloro-2-thienyl)-1H-pyrazol-4-yl]pyridin-2-yl}propanamide] | 95% | – | – | – | 90% | – | protection (Pyrenophora teres): 100%; chromatographic logP (physchem; pH 2.7): 3.07; chromatographic logP (physchem; pH 7.8): 3.59 |
| CCC(=O)Nc1cc(-c2cn(CC(C)C)nc2-c2ccc(Cl)s2)ccn1 [Example 396] | – | 3.33^[a] | 30% | 100% | 100% | – | protection (Pyrenophora teres): 70% |
| Clc1ccc(-c2nn(Cc3ccccc3)cc2-c2ccncn2)s1 [Example 5] | – | – | – | – | – | 3.41^[b] | protection (Pyrenophora teres): 70%; logP value of the minor isomer (in parenthesis in column Isomer ratio [d]) (minor isomer, main value of the example measured by method [b], pH 2.7): (3.17); % inhibition FB1 production at 50 μM (Fusarium proliferatum): 81%; % inhibition fungal growth at 50 μM (Fusarium proliferatum): 0% |
| FC(F)(F)c1ccc(-c2c(-c3ccncc3)cnn2C2CCCCO2)s1 (centres unmarked) [Example 403] | – | 1.94^[a] | – | – | – | – | – |
| CC(C)Cn1cc(-c2ccnc(NC(=O)C(C)C)c2)c(-c2ccc(Cl)s2)n1 [Example 397] | – | 3.83^[a] | 32% | 97% | 100% | – | protection (Pyrenophora teres): 90% |
| CC(=O)Nc1cc(-c2cn(C)nc2-c2ccc(Cl)s2)ccn1 [Example 287] | 80% | – | 94% | 99% | 90% | 1.79^[b] | protection (Pyrenophora teres): 95% |
| CC(C)C(=O)Nc1cc(-c2cn(C)nc2-c2ccc(Cl)s2)ccn1 [Example 288] | 70% | – | 92% | 99% | 90% | 2.39^[b] | protection (Pyrenophora teres): 95% |
| Brc1ccc(-c2n[nH]cc2-c2ccncc2)s1 [Example 408] | 78% | 0.94^[a] | 0% | 97% | 70% | – | – |
| CCC(C)n1ncc(-c2ccncc2)c1-c1ccc(F)s1 (centres unmarked) [Example 107] | – | – | 86% | 100% | – | 1.69^[b] | % inhibition FB1 production at 50 μM (Fusarium proliferatum): 80%; % inhibition fungal growth at 50 μM (Fusarium proliferatum): 1% |
| CCC(=O)Nc1cc(-c2cn(C)nc2-c2ccc(Cl)s2)ccn1 [Example 278] | 80% | – | 100% | 98% | 90% | 2.05^[b] | protection (Pyrenophora teres): 90% |
| CCn1cc(-c2ccnc(NC(=O)C3CC3)c2)c(-c2ccc(Cl)s2)n1 [Example 264] | 80% | – | 100% | 99% | 90% | 2.52^[b] | protection (Pyrenophora teres): 90% |
